Literature values in US20090239872A1, “TREATMENT OF MESOTHELIOMA” (priority 2002, published 2009).

How the values were obtained:
Conditions in all cases: qualitative statement
Flt-1 = Flt-1 (Homo sapiens, UniProt P17948)
Flt-4 = Flt-4 (Homo sapiens, UniProt P35916)
c-Kit = c-Kit (Homo sapiens, UniProt P10721)
c-Kit, sequence (P10721 26-976): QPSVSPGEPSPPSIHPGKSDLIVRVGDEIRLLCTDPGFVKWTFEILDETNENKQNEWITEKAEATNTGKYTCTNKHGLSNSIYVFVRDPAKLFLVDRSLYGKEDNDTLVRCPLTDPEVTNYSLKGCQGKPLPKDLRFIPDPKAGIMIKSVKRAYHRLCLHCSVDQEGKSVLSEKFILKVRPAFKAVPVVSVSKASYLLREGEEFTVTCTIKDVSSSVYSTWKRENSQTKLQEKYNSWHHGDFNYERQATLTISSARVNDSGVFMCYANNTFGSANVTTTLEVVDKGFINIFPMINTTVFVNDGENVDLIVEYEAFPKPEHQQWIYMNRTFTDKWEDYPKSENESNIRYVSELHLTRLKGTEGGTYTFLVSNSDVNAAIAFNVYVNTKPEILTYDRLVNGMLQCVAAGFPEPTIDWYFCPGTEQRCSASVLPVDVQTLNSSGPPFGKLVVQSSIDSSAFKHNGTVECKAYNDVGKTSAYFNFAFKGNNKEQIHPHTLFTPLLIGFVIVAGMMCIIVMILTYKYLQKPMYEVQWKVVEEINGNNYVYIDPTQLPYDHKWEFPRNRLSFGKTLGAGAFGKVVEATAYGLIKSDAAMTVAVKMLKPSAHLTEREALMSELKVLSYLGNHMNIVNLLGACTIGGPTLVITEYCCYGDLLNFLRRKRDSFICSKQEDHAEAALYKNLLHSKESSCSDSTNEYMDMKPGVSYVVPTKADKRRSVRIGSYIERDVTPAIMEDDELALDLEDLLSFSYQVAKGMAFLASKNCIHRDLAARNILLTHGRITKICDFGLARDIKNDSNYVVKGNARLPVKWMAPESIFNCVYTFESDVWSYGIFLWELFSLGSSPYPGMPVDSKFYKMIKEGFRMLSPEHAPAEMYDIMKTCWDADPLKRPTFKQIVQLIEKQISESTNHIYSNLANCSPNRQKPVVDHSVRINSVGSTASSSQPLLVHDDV

Flt-1, sequence (P17948 27-1338, species assumed): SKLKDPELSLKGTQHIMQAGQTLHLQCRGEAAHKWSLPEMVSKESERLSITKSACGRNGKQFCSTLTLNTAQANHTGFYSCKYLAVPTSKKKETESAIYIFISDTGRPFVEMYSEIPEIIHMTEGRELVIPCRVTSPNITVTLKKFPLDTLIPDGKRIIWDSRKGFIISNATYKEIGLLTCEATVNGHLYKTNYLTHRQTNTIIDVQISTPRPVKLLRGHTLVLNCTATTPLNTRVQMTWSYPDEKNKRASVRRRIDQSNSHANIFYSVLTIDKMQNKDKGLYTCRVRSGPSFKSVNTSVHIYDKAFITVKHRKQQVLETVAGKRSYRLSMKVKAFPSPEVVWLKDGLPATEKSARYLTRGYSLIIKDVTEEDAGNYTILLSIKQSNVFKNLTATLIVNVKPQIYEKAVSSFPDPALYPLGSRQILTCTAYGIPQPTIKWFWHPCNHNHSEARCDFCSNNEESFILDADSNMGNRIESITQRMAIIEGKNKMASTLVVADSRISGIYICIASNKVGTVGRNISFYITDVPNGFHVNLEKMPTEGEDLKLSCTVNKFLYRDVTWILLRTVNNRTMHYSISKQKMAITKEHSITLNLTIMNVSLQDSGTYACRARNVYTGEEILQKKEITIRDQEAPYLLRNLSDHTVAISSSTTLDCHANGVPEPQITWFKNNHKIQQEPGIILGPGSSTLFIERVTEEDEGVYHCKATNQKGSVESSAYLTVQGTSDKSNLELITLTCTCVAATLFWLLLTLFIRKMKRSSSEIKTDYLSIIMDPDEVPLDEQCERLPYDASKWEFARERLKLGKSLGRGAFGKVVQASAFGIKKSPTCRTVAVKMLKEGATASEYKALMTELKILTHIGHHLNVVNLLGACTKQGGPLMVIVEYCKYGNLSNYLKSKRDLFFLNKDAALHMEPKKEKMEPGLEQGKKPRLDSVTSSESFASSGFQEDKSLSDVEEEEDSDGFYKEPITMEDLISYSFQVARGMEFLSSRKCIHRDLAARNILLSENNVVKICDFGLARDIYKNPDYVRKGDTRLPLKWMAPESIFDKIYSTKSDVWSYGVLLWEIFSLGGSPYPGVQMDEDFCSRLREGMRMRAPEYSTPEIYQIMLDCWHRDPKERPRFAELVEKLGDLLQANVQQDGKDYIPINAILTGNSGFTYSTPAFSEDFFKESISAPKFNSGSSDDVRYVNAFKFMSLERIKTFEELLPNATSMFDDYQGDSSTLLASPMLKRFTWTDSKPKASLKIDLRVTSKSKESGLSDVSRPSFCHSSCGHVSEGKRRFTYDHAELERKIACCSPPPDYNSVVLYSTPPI
Flt-4, sequence (P35916 25-1363, species assumed): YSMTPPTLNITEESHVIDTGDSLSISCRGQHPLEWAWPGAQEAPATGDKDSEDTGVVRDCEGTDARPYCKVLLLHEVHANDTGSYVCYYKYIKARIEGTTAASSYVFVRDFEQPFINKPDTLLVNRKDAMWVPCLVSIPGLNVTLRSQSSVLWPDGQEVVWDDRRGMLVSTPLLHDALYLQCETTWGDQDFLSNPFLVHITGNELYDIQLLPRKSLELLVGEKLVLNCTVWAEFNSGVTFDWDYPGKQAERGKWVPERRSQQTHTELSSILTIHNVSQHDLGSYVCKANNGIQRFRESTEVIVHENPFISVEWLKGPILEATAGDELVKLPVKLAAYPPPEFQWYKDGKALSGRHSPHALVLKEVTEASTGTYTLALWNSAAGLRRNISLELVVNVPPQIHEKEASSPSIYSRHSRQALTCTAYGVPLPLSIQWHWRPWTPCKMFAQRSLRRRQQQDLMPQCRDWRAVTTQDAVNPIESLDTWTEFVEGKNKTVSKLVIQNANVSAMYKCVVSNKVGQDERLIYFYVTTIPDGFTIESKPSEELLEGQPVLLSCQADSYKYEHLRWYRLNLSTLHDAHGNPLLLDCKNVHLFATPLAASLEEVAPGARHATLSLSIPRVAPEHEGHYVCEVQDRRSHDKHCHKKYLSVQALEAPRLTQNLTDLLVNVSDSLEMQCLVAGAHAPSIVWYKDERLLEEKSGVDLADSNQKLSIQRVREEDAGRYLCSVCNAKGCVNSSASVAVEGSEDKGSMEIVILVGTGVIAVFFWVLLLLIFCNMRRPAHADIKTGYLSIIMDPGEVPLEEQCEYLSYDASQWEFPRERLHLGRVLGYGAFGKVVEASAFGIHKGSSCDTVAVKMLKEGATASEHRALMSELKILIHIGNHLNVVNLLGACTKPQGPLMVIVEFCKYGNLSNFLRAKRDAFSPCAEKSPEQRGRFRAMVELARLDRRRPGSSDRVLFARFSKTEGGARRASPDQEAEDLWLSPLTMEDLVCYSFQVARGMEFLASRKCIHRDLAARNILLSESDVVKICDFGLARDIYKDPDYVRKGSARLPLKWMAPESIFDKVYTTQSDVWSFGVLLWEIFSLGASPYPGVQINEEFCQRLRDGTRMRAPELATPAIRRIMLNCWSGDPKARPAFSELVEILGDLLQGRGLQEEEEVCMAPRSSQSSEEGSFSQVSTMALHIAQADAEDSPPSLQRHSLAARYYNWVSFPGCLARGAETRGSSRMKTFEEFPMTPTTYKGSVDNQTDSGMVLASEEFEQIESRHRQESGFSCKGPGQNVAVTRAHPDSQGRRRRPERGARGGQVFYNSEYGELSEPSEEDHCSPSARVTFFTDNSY

inhibition of Flt-1 (Flt-1): can also inhibit | inhibition of Flt-4 (Flt-4): can also inhibit | activity against c-Kit (c-Kit): has activity
SMILES: Clc1ccc(Nc2nnc(Cc3ccncc3)c3ccccc23)cc1 [ZK222584, 1-(4-chloroanilino)-4-(4-pyridylmethyl)phthalazine]
